Source: US20080114079A1, “TRPM2-specfic inhibitors” (priority 2006, published 2008)
“Also recorded” adds a separate entry of the source.

Columns and labels:
[1] = tested on: mouse bone marrow neutrophils; assay: Ca2+ mobilization assay in chemoattractant-stimulated bone marrow neutrophils (flow cytometry, Fluo-3/Fura-red); assay type: cell-based; conditions: 100 μM, 15 min
Experimental: (§1) Ca^2+ mobilization assays. Bone marrow neutrophils (1×10^7/ml) and DCs (1×10^6/ml) were loaded with a mixture of Fluo-3 AM and Fura-Red AM as previously described (Partida-Sanchez, S. et al., 2001 Nature Medicine 7:1209-1216; Partida-Sanchez S. et al., 2004 Immunity 20:279-291). […] The accumulation of intracellular free Ca^2+ was assessed by flow cytometry by measuring the fluorescence emission of Fluo-3 in the FL-1 channel and Fura-Red in the FL-3 channel over time. Data were analyzed using FlowJo 4.0 software (Tree Star). Relative intracellular free Ca^2+ levels are expressed as the ratio between Fluo-3 and Fura-Red mean fluorescence intensity.

TRPM2 channels = molecular target: T1, TRPM2 channels (Homo sapiens, UniProt O94759); assay: Whole-cell patch-clamp of ADPR-gated cation entry in TRPM2-expressing Jurkat T cells; assay type: cell-based; conditions: 300 μM ADPR in the pipette, -60 mV
T1 construct: All experiments were performed at room temperature with Jurkat T lymphocytes attached to high molecular weight poly-L-lysin; endogenous in cells; host or cells: Jurkat T lymphocytes
T1 sequence (O94759 whole entry): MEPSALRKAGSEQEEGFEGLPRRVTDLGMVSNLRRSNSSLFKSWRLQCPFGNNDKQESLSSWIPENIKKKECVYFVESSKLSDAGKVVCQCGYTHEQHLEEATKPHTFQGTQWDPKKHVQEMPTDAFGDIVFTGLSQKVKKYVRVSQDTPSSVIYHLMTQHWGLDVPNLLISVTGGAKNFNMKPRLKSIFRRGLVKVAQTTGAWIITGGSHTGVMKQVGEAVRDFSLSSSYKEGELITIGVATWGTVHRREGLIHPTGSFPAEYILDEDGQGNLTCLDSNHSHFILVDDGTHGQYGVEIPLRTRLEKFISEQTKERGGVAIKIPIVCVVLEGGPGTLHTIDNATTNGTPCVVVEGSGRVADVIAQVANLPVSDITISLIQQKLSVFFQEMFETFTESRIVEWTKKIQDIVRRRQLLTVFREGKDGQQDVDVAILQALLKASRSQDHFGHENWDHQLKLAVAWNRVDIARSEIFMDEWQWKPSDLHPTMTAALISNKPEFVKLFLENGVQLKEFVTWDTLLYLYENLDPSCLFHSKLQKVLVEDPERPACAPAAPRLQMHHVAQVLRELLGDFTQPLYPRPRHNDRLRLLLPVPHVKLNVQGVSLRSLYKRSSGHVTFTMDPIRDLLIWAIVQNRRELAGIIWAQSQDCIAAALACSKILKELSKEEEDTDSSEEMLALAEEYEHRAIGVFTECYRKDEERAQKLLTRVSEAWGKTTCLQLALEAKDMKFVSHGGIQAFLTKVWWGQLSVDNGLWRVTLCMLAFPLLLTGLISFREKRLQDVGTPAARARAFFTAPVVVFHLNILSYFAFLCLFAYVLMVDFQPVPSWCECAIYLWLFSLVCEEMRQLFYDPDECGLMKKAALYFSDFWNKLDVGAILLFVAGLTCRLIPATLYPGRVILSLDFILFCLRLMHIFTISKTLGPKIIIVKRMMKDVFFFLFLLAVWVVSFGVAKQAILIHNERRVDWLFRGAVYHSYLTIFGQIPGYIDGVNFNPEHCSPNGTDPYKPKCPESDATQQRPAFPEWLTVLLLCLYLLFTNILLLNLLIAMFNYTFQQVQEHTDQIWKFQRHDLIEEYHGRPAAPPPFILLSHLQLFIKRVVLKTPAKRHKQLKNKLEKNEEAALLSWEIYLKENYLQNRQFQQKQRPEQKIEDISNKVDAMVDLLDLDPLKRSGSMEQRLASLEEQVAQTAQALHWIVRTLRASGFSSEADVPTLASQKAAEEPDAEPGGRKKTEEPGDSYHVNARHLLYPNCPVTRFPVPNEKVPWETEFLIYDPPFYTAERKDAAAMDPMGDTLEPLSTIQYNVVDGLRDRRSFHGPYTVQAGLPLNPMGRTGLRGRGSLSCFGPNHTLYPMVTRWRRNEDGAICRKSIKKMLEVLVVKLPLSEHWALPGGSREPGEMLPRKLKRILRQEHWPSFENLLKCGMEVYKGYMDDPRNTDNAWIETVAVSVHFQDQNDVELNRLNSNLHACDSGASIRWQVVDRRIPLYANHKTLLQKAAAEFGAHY
Experimental: Electrophysiology. […] An EPC9 patch-clamp amplifier was used in conjunction with the PULSE stimulation and data acquisition software (HEKA Elektronik). The patch electrodes were made from 1.5 mm diameter borosilicate glass capillaries and filled with intracellular solution. Data were low-pass filtered at 1 kHz and compensated for both fast and slow capacity transients. Series resistance was compensated by 50-90%. All experiments were performed at room temperature with Jurkat T lymphocytes attached to high molecular weight poly-L-lysin. The pipette solution contained 145 mM K-glutamate, 8 mM NaCl, 1 mM MgCl2 and 10 mM EGTA, adjusted to pH 7.2 with KOH and to a free Ca^2+ concentration of 100 nM with CaCl2. […] The external solution contained 145 mM NaCl, 2 mM MgCl2, 1 mM CaCl2, 2.8 mM KCl, 10 mM HEPES and 10 mM glucose, adjusted to pH 7.2 with NaOH. The cells were held at −60 mV and I-V relations were obtained every 20 sec using 250 ms voltage ramps from −100 to +100 mV.

mouse DCs = assay: Ca2+ mobilization assay in chemokine-stimulated DCs; assay type: cell-based; conditions: 100 μM, 15 min, CXCL12 50 ng/ml
Experimental: as §1

[2] = tested on: mouse bone marrow neutrophils; assay: Transwell chemotaxis assay, mouse bone marrow neutrophils; assay type: cell-based
Experimental: (§2) Chemotaxis assays. Chemotaxis assays were performed as previously described (Partida-Sanchez, S. et al., 2001 Nature Medicine 7:1209-1216; Partida-Sanchez S. et al., 2004 Immunity 20:279-291). […] Treated cells (1×10^6 neutrophils or 1×10^5 DCs) were added to the upper chamber of the transwell (3-μm for neutrophils or 5-μm for DCs) (Costar). After incubating the chambers for 45 min (neutrophils) or 90 min (DCs) at 37° C., the transmigrated cells were collected from the lower chamber, fixed, and counted on a flow cytometer. The results are expressed as the mean ±SD of the chemotaxis index (CI) for triplicate wells. The CI represents the fold-change in the number of untreated or inhibitor-pretreated cells that migrated in response to the chemoattractant divided by the basal migration of untreated or antagonist pretreated cells migrating in response to control medium.

[3] = tested on: bone marrow-derived immature or TNFα-matured DCs; assay: Transwell chemotaxis assay, bone marrow-derived DCs; assay type: cell-based, mouse; conditions: 100 μM, 15 min pretreatment
Experimental: as §2

human neutrophils = assay: Transwell chemotaxis assay, human peripheral blood neutrophils; assay type: cell-based; conditions: 100 μM, 15 min, A5 peptide 1 μM
Experimental: as §2

[4] = HPLC analysis of catabolites after incubation with bone marrow neutrophils; assay type: in vitro ADME, mouse
Experimental: HPLC analysis of catabolites produced by CD38-expressing cells. […] The supernatants were collected after centrifugation, concentrated and flash frozen. Aliquots were analyzed by reversed-phase HPLC (Kontron Instruments) using a Multohyp BDS C18 column (250 mm×4.6 mm, particle size 5 μm, Chromatographie Service). Absorbance was measured at 270 nm using a UV detector (Kontron 432) and data were processed by the MT2 data acquisition system from Kontron Instruments. Peaks were identified by comparison to known standards and the area under each curve was quantified to determine relative amounts of each metabolite.

[5] = tested on: mouse bone marrow neutrophils; assay: Oxidant (H2O2)-induced Ca2+ influx in bone marrow neutrophils; assay type: cell-based; conditions: 100 μM, 15 min, H2O2 100 μM
Experimental: as §1

[6] = fMLP 1 μM, Ca2+-containing media
[7] = 100 μM, 15 min, fMLP 1 μM, 45 min

Compound: Nc1ncnc2c1nc(Br)n2[C@@H]1O[C@H](COP(=O)(O)O)[C@@H](O)[C@H]1O [8Br-AMP]
- effect on extracellular Ca2+ influx in fMLP-stimulated WT neutrophils [1, 6]: had absolutely no effect; also recorded: does not block

Compound: adenosine diphosphate ribose [ADPR]
- membrane current on infusion into Jurkat cells (TRPM2 channels): caused a slowly developing inward current

Compound: 8Br-cADPR
- effect on intracellular Ca2+ release after IL-8 ([1]; IL-8 100 nM, Ca2+ free buffer (EGTA 2 mM)): had no effect
- effect on IL-8 induced Ca2+ response ([1]; IL-8 100 nM, Ca2+-containing media): neither compound had any effect
- decrease of intracellular Ca2+ release in fMLP-stimulated neutrophils ([1]; fMLP 1 μM, Ca2+ free buffer (EGTA 2 mM)): approximately 25%
- effect on extracellular Ca2+ influx in fMLP-stimulated WT neutrophils [1, 6]: significantly decreased
- effect on Ca2+ response of CXCL12-stimulated immature DCs (mouse DCs): blocked
- IC50 ([2]; 0-100 μM, 15 min, fMLP 1 μM, read-out: IC50 on chemotaxis of fMLP-stimulated mouse neutrophils): 1000 to 5000 nM
- effect on chemotactic response of WT neutrophils to fMLP [2, 7]: effectively blocked chemotaxis; also recorded: significantly inhibited
- effect on chemotactic response of neutrophils to IL-8 ([2]; 100 μM, IL-8 100 nM, 45 min): neither 8Br-ADPR nor 8Br-cADPR blocked
- effect on chemotactic response of CD38KO (Cd38-/-) neutrophils to fMLP ([2]; 15 min, fMLP 1 μM): no further inhibition
- chemotactic response of TNFα-matured DCs to CCL21 [3]: neither the immature nor mature DCs migrated efficiently
- chemotactic response of immature DCs to CXCL12 [3]: neither the immature nor mature DCs migrated efficiently
- effect on migration of human neutrophils to FPRL1 ligand A5 peptide (human neutrophils): effectively inhibited
- catabolism on incubation with CD38KO (Cd38-/-) neutrophils [4]: remained largely unchanged
- stability in the absence of any cells [4]: remained intact

Compound: NC(=O)c1ccc[n+]([C@@H]2O[C@H](COP(=O)([O-])OP(=O)(O)OC[C@H]3O[C@@H](n4c(Br)nc5c(N)ncnc54)[C@H](O)[C@@H]3O)[C@@H](O)[C@H]2O)c1 [8Br-NAD^+]
- effect on extracellular Ca2+ influx in fMLP-stimulated WT neutrophils [1, 6]: significantly reduced
- effect on Ca2+ influx in fMLP-stimulated Parp1-/- neutrophils ([1]; fMLP 1 μM, Parp1-/-): significantly reduced
- effect on H2O2-induced Ca2+ influx in WT neutrophils [5]: had no effect
- effect on chemotactic response of WT neutrophils to fMLP [2, 7]: significantly inhibited
- effect on chemotactic response of Parp1-/- neutrophils to fMLP ([2]; 100 μM, 15 min, fMLP 1 μM, Parp1-/-): inhibited
- effect on chemotactic response of CD38KO (Cd38-/-) neutrophils to fMLP ([2]; 15 min, fMLP 1 μM): no further inhibition
- stability in the absence of any cells [4]: remained intact
